Legend:
[1] = test system: WT and TAAR1-KO mice; assay: Open-field test: baseline locomotion and MK-801-induced hyperlocomotion; format: in vivo; settings: compound 65 1 mg/kg, risperidone 0.03 mg/kg
Method: To assess the influence of the compound on baseline locomotion and MK-801–induced hyperlocomotion, mice were subjected to open-field testing on four occasions separated by 96 hours. The first occasion was a mock test session where all mice were injected with vehicle only, serving to reduce the effect of novelty on subsequent sessions. The next three sessions were true test sessions with pretreatment of either compound 65, risperidone, or vehicle, followed by MK-801. The R package agricolae was used to generate a randomized block design, randomizing treatment order across sex, genotype, and test session. After injection with either compound 65 (1 mg/kg), risperidone (0.03 mg/kg), or vehicle intraperitoneally, mice were immediately placed in the open field and recorded for 15 min. They were then injected with MK-801 (0.35 mg/kg intraperitoneal) and recorded again for 60 min. The OFT arena measured 46 cm by 46 cm with gray floor and walls. The brightness at the center of each arena was 30 to 50 lux. The arenas were cleaned with 70% ethanol between each animal. Video from a camera mounted in the ceiling was analyzed using EthoVision XT11.5 (Noldus) software.

[2] = target: T1, 5-HT1A receptor (Homo sapiens, UniProt P08908); assay: PRESTO-TANGO β-arrestin recruitment; format: cell-based; settings: panel screen
T1 construct: TANGO fusion module (own knowledge, Kroeze et al.: C-terminal V2 tail, TEV site and tTA); 1000000068; host or cells: HTLA (HEK293-derived)
T1 sequence (P08908 1-422): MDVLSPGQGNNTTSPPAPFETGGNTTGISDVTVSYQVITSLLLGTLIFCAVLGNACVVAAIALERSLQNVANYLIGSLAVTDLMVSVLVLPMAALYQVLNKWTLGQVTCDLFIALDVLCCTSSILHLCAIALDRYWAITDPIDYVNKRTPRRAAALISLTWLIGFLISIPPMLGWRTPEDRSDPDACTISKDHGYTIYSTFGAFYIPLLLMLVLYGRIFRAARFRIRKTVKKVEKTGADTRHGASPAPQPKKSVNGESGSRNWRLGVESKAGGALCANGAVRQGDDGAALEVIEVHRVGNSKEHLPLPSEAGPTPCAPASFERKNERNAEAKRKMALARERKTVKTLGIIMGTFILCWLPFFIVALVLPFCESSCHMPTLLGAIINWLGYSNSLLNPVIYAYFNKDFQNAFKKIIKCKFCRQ
Method: Assessment of receptor activation by compounds at all human aminergic receptors were carried out using a modified version of the PRESTO-TANGO method. […] The plate was spun down, and 5 μl of a 1:25 dilution (in DPBS) of polyethylenimine (PEI) derivative (Transporter 5, Polysciences) was added (1:4 cDNA to PEI ratio) and incubated for 20 min at room temperature (RT). […] Luminescence signal was detected using a plate-reader (SPARK, Tecan) with 100-ms integration time and a 100-ms delay between well reads.

[3] = test system: WT and TAAR1-KO mice; assay: Accelerating rotarod test; format: in vivo; settings: 1 mg/kg i.p., 30 min after injection
Method: To test compound 65 for sedative effects, mice were subjected to the accelerating rotarod test as previously described ([77]), with minor modifications. Mice were acclimatized to the rotarod (Ugo Basile, Gemonio, Italy) for 2 days before testing, starting at 4 rotations per minute (RPM) and accelerating to 40 RPM over 300 s. A baseline measure of performance, defined as the latency to fall from the rotarod with a cutoff time of 300 s, was taken before injection with either compound 65 (1 mg/kg), xylazine (5 mg/kg), or vehicle intraperitoneally. The mice were then retested 30 min after injection.

[4] = In vivo pharmacokinetics, plasma and brain; parameters: species or system mice
Method: Brains were collected and snap-frozen. Blood was sampled from the cervical vein upon decapitation in Eppendorf tubes containing 50 μl of 0.5 M EDTA and immediately centrifuged for 10 min at 3000g and 4°C. Isolated plasma was then transferred into clean polypropylene tubes. All samples were stored at −20°C before analysis.
Brains were weighed and homogenized 1:3 (w/v) in PBS using a Minilys Bead Homogenizer (Bertin Instruments). […] Samples were precipitated with acetonitrile (1:4) containing warfarin as analytical internal standard. The supernatants were injected into the LC-MS/MS system consisting of a TQ-S micro mass spectrometer coupled to an Acquity UPLC (Waters Corp, MA, USA). […] The obtained concentrations of brain homogenate samples were multiplied by 4 to account for the dilution during preparation of the homogenate. Pharmacokinetic parameters were determined from the experimental data by applying non-compartmental analysis using Microsoft Excel spreadsheet. The brain-to-plasma partition coefficient (Kp,brain) was calculated as the ratio of the area under the concentration–time curves (AUC) in brain versus plasma (AUCbrain/AUCplasma).

For `CC1=C(c2ccco2)CNCC1` [Compound 65], the effect on locomotion ([1]; TAAR1-KO mice) was “did not exhibit such an effect”, the “effect on MK-801–induced hyperlocomotion” value ([1]; WT mice, MK-801 0.35 mg/kg) was “significant decrease” and the “effect on baseline locomotion” value ([1]; WT mice, versus vehicle) was “trend toward decreased locomotion”. For the same compound, the “activation of 5-HT1A receptor” value [2] was “did not observe a considerable activation”, the “effect on rotarod performance (sedation)” value [3] was “did not influence rotarod performance” and the Clearance ([4]; after intraperitoneal administration, 1 mg/kg, mice, estimated) was 225 ml/min per kg. The “brain concentration by 4 hours” value ([4]; below lower limit of quantification, mice, i.p. 1 mg/kg) was < 40 pmol/g, the Kp ([4]; male, C57BL/6, mouse, brain and plasma, intraperitoneal, 1 mg/kg, total concentrations, AUCbrain/AUCplasma, read-out: brain-to-plasma partition coefficient Kp,brain) was 7.9 and the half-life ([4]; male, C57BL/6, mouse, ip, plasma, mice, intraperitoneal 1 mg/kg) was 17 min. The concentration at 4 h ([4]; male, C57BL/6, mouse, plasma, ip, below lower limit of quantification, mice, i.p. 1 mg/kg) was < 5 nM, the Cmax ([4]; male, C57BL/6, mouse, plasma, ip, mice, intraperitoneal 1 mg/kg, read-out: maximum plasma concentration (Cmax)) was 850 ± 172 nM and the Tmax ([4]; male, C57BL/6, mouse, plasma, ip, mice, intraperitoneal 1 mg/kg, read-out: time to maximum plasma concentration) was ≤ 5 min. The “maximum concentration in brain” value ([4]; mice, intraperitoneal 1 mg/kg) was 4707 ± 766 pmol/g, the “time to maximum brain concentration” value ([4]; mice, intraperitoneal 1 mg/kg) was ≤ 5 min and the “volume of distribution (V)” value ([4]; mice, intraperitoneal 1 mg/kg) was 6.3 L/kg.

Reference: paper PMC11305387, “AlphaFold accelerated discovery of psychotropic agonists targeting the trace amine–associated receptor 1” (Science Advances, 2024)
